Test results reported in the supplement of paper PMC10307832.

Assays:
Assay in all cases: relative viability (nuclei count vs DMSO), 5 days (fraction); higher = more cells survive
[1] = compound: C1COCCN1C2=NC(=NC3=C2OC4=C3C=CC=N4)C5=CC(=CC=C5)NC(=O)C6=CN=C(C=C6)N + CS(=O)(=O)CCNCc1ccc(-c2ccc3ncnc(Nc4ccc(OCc5cccc(F)c5)c(Cl)c4)c3c2)o1 [Lapatinib] (partner 2 µM)
In short: (§1)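 Relative viability divides the nuclei count in treated wells by that in vehicle wells. Lung cancer cell lines were seeded in 1536-well plates, dosed by pin tool the next day, and fixed and stained after 5 days in one step with final 0.05% Triton X-100, 1% formaldehyde and 1 ug/ml Hoechst. Dosing was a single drug or a fixed anchor-drug dose plus five library-drug doses (not always all listed) in √10 steps, and values are medians of duplicate plates imaged at 4×.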

SGI-1776 + Linsitinib = compound: CN1CCC(CNc2ccc3ncc(-c4cccc(OC(F)(F)F)c4)n3n2)CC1 [SGI-1776] + C[C@]1(O)C[C@@H](c2nc(-c3ccc4ccc(-c5ccccc5)nc4c3)c3c(N)nccn32)C1 [Linsitinib] (partner 1 µM)
In short: as §1

SGI-1776 + Bortezomib = compound: CN1CCC(CNc2ccc3ncc(-c4cccc(OC(F)(F)F)c4)n3n2)CC1 [SGI-1776] + CC(C)C[C@H](NC(=O)[C@H](Cc1ccccc1)NC(=O)c1cnccn1)B(O)O [Bortezomib] (partner 0.002 µM)
In short: as §1

[2] = compound: C1COCCN1C2=NC(=NC3=C2OC4=C3C=CC=N4)C5=CC(=CC=C5)NC(=O)C6=CN=C(C=C6)N + CC1(C)CCC(c2ccc(Cl)cc2)=C(CN2CCN(c3ccc(C(=O)NS(=O)(=O)c4ccc(N[C@H](CCN5CCOCC5)CSc5ccccc5)c(S(=O)(=O)C(F)(F)F)c4)cc3)CC2)C1 [Navitoclax] (partner 0.5 µM)
In short: as §1

Row | Cell Line | relative viability ([1]; first compound 0.02 µM) | relative viability ([1]; first compound 0.06325 µM) | relative viability ([1]; first compound 0.2 µM) | relative viability ([1]; first compound 0.6325 µM) | relative viability ([1]; first compound 2 µM) | relative viability (SGI-1776 + Linsitinib; first compound 0.08 µM) | relative viability (SGI-1776 + Linsitinib; first compound 0.8 µM) | relative viability (SGI-1776 + Linsitinib; first compound 2.53 µM) | relative viability (SGI-1776 + Linsitinib; first compound 8 µM) | relative viability (SGI-1776 + Bortezomib; first compound 0.08 µM) | relative viability (SGI-1776 + Bortezomib; first compound 0.8 µM) | relative viability (SGI-1776 + Bortezomib; first compound 2.53 µM) | relative viability (SGI-1776 + Bortezomib; first compound 8 µM) | relative viability ([2]; first compound 0.02 µM) | relative viability ([2]; first compound 0.06325 µM) | relative viability ([2]; first compound 0.2 µM) | relative viability ([2]; first compound 0.6325 µM) | relative viability ([2]; first compound 2 µM)
1 | NCI-H1355 | 0.95 | 1.01 | 0.997 | 0.936 | 0.814 | 0.92 | 0.899 | 0.792 | 0.729 | 1.2 | 1.24 | 1.24 | 1.03 | 0.924 | 1.08 | 0.909 | 0.841 | 0.9
2 | NCI-H322M | 0.553 | 0.574 | 0.506 | 0.604 | 0.45 | 1.01 | 1.04 | 0.933 | 0.774 | 1.3 | 1.26 | 1.21 | 1.07 | 1.14 | 1.19 | 1.21 | 0.924 | 1.12
3 | NCI-H1395 | 0.782 | 1.13 | 0.91 | 0.983 | 0.831 | 1.19 | 1.08 | 0.938 | 0.746 |  |  |  |  | 0.919 | 1.07 | 1.03 | 1.25 | 1.19
4 | NCI-H2023 | 0.759 | 0.798 | 0.618 | 0.565 | 0.471 | 0.727 | 0.77 | 0.666 | 0.444 | 1.13 | 1.07 | 0.988 | 0.727 | 1.05 | 1.03 | 0.967 | 0.904 | 0.444
5 | NCI-H1666 | 0.708 | 0.598 | 0.56 | 0.648 | 0.434 | 0.856 | 0.83 | 0.772 | 0.493 | 0.81 | 0.826 | 0.918 | 0.56 | 0.856 | 0.96 | 0.722 | 0.687 | 0.573
6 | HARA | 0.749 | 0.699 | 0.803 | 0.707 | 0.502 | 1.11 | 0.921 | 0.909 | 0.945 | 1.2 | 1.21 | 1.01 | 1.05 | 1.2 | 1.17 | 1.21 | 1.19 | 0.897
7 | NCI-H1944 | 0.802 | 0.864 | 0.753 | 0.876 | 0.859 | 1.15 | 1.31 | 1.21 | 1.05 |  |  |  |  | 1.03 | 1.04 | 0.957 | 0.841 | 0.858
8 | NCI-H2405 | 0.983 | 1.05 | 1.04 | 1.02 | 0.902 | 0.899 | 0.873 | 0.854 | 0.588 | 1.04 | 0.997 | 0.896 | 0.924 | 0.819 | 0.927 | 0.904 | 0.931 | 0.721
9 | 201T | 0.957 | 1.02 | 0.984 | 1.04 | 1.01 | 1.05 | 1.01 | 0.968 | 0.87 | 1.09 | 1.08 | 1.11 | 0.986 | 1.2 | 1.23 | 1.14 | 1.12 | 1.1
10 | PC-3 [JPC-3] | 0.444 | 0.459 | 0.438 | 0.476 | 0.398 | 0.999 | 0.974 | 1.02 | 0.917 | 0.867 | 0.806 | 0.845 | 0.687 | 0.823 | 0.847 | 0.848 | 0.741 | 0.615
11 | ChaGo-K-1 |  |  |  |  |  |  |  |  |  | 0.982 | 1.22 | 0.644 | 0.785 | 0.96 | 0.863 | 0.619 | 1.01 | 0.839
12 | NCI-H1563 | 0.906 | 0.82 | 0.857 | 0.72 | 0.719 | 1.14 | 1.19 | 1.16 | 1.08 | 0.934 | 0.849 | 0.847 | 0.692 |  |  |  |  | 
13 | NCI-H650 | 0.913 | 0.915 | 0.891 | 1.02 | 0.517 | 1.07 | 0.952 | 0.686 | 0.727 | 0.95 | 0.755 | 0.836 | 0.622 |  |  |  |  | 
14 | NCI-H661 | 0.53 | 0.554 | 0.525 | 0.351 | 0.406 | 0.74 | 0.643 | 0.545 | 0.502 | 0.963 | 0.858 | 0.833 | 0.649 |  |  |  |  | 
15 | NCI-H441 |  |  |  |  |  | 0.506 | 0.588 | 0.645 | 0.354 | 0.376 | 0.443 | 0.529 | 0.332 | 0.546 | 0.566 | 0.571 | 0.665 | 0.297
16 | ABC-1 | 1.38 | 1.14 | 1.07 | 1.21 | 0.871 | 0.745 | 0.895 | 0.883 | 0.742 | 0.299 | 0.323 | 0.364 | 0.241 |  |  |  |  | 
17 | LK-2 | 1.14 | 1.11 | 0.828 | 0.776 | 0.563 | 0.697 | 0.773 | 0.523 | 0.418 |  |  |  |  | 0.953 | 0.845 | 0.869 | 0.714 | 0.54
18 | SK-MES-1 | 0.455 | 0.492 | 0.431 | 0.424 | 0.312 | 1.09 | 1.09 | 1.14 | 1.03 |  |  |  |  | 1.42 | 1.22 | 1.17 | 0.931 | 0.787
19 | NCI-H1793 | 0.884 | 0.971 | 0.575 | 0.56 | 0.405 | 1.06 | 0.895 | 1 | 0.794 |  |  |  |  | 0.398 | 0.523 | 0.416 | 0.655 | 0.375
20 | A549 | 1.07 | 0.925 | 0.911 | 0.921 | 0.468 | 0.672 | 0.574 | 0.518 | 0.48 |  |  |  |  | 1.37 | 1.22 | 1.13 | 1.18 | 0.668
21 | NCI-H358 | 0.438 | 0.45 | 0.34 | 0.387 | 0.355 | 0.725 | 0.756 | 0.758 | 0.388 |  |  |  |  |  |  |  |  | 
